According to patent US8685992B2, “Histone deacetylase inhibitors based simultaneously on trisubstituted 1H-pyrroles and aromatic and heteroaromatic spacers” (Universidad del País Vasco, priority 2009, dated 2014):

What was measured:
[1] = biological target: histone deacetylase from rat liver; experiment: Rat liver HDAC assay; format: biochemical; details: Boc-Lys(Ac)-AMC substrate, 30° C., 2 h, read-out: IC50 (nM) of enzyme activity Rat liver
Human HDAC1 = Human HDAC1 (Homo sapiens (Human), UniProt Q13547); experiment: HDAC1 fluorogenic peptide deacetylation assay; format: biochemical; details: human HDAC1, 50 μM substrate, 30° C., 2 h; read-out: IC50 (nM) of enzyme activity HDAC1
Sequence of Human HDAC1 (Q13547 whole entry): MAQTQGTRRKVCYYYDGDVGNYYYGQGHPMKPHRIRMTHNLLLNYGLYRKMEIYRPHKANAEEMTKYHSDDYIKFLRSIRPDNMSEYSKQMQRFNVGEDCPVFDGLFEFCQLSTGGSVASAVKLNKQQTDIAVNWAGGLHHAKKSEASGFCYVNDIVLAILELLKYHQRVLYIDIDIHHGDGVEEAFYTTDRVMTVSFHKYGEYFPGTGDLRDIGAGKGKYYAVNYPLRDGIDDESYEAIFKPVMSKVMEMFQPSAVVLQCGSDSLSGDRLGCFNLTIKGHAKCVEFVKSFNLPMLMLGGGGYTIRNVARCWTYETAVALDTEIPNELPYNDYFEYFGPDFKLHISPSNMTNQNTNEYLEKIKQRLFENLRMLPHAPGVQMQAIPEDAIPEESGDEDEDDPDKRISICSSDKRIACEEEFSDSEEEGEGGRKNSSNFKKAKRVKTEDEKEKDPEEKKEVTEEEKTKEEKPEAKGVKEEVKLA

Human HDAC2 = Human HDAC2 (Homo sapiens (Human), UniProt Q92769); experiment: HDAC2 fluorogenic peptide deacetylation assay; format: biochemical; details: human HDAC2, 50 μM substrate, 30° C., 2 h; read-out: IC50 (nM) of enzyme activity HDAC2
Sequence of Human HDAC2 (Q92769 whole entry): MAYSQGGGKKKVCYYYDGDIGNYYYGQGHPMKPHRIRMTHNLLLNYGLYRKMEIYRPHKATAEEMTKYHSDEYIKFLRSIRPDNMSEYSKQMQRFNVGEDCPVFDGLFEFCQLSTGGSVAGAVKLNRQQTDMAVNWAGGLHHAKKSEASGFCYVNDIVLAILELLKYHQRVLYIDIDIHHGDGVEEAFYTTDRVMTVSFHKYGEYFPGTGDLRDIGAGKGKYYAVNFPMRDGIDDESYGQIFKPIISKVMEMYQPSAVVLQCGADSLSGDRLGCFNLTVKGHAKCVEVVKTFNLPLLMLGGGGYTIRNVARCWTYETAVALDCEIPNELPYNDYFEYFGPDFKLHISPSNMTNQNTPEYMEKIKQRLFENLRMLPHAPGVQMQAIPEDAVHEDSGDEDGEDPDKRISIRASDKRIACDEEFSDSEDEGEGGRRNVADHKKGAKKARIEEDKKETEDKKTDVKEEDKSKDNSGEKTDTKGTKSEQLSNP

Human HDAC3/NcoR2 = Human HDAC3/NcoR2 (Homo sapiens (Human), UniProt O15379); experiment: HDAC3 fluorogenic peptide deacetylation assay; format: biochemical; details: human HDAC3/NcoR2, 50 μM substrate, 30° C., 2 h; read-out: IC50 (nM) of enzyme activity HDAC3
Sequence of Human HDAC3/NcoR2 (O15379 whole entry): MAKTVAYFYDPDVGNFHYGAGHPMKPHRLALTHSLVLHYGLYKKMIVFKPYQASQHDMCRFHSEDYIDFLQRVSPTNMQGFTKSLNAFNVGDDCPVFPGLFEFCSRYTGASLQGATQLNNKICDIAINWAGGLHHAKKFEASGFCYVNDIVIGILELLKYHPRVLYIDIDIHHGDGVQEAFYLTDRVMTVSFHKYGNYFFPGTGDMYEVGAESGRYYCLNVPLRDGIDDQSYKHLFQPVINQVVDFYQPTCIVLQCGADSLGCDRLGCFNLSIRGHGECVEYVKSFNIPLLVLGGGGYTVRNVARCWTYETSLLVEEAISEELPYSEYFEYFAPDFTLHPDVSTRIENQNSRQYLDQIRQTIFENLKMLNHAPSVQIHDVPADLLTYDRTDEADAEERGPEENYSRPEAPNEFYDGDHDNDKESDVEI
Sequence of Human HDAC3/NcoR2 (Q9Y618 395-489 partner): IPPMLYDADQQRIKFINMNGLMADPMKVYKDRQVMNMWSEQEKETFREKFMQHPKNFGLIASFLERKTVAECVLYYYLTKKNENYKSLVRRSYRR

Human HDAC6 = Human HDAC6 (Homo sapiens (Human), UniProt Q9UBN7); experiment: HDAC6 fluorogenic peptide deacetylation assay; format: biochemical; details: human HDAC6, 50 μM substrate, 30° C., 2 h; read-out: IC50 (nM) of enzyme activity HDAC6
Sequence of Human HDAC6 (Q9UBN7 whole entry): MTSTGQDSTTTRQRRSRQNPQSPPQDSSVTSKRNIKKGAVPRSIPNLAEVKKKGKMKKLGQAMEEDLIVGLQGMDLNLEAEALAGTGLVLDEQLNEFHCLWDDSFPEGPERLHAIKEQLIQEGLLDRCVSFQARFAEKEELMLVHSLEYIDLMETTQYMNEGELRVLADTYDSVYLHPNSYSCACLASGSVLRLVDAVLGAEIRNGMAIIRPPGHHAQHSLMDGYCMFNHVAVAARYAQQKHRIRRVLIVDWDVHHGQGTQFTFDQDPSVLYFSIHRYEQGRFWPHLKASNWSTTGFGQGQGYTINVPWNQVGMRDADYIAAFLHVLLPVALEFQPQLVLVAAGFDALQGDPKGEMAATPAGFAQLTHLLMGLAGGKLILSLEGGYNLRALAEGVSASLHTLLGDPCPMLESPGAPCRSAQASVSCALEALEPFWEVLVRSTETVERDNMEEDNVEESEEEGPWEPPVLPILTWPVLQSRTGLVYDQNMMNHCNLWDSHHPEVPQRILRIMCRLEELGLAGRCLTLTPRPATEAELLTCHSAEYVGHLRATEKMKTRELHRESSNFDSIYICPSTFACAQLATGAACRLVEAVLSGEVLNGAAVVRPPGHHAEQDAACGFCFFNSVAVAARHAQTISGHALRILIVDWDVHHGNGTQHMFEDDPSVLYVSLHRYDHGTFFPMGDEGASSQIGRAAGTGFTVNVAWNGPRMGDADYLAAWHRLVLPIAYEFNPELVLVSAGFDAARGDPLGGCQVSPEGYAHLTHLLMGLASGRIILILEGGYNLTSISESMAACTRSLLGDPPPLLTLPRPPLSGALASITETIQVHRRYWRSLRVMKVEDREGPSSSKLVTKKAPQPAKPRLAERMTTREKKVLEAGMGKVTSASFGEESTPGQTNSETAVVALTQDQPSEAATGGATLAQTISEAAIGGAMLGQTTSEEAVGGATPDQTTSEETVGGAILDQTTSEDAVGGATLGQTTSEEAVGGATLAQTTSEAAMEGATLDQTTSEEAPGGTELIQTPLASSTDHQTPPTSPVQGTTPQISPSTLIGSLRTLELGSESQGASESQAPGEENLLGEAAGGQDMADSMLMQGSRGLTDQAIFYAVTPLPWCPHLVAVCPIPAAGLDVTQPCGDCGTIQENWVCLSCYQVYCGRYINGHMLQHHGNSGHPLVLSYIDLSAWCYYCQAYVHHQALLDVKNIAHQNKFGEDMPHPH

Human HDAC8 = Human HDAC8 (Homo sapiens (Human), UniProt Q9BY41); experiment: HDAC8 fluorogenic peptide deacetylation assay; format: biochemical; details: human HDAC8, 50 μM substrate, 30° C., 2 h; read-out: IC50 (nM) of enzyme activity HDAC8
Sequence of Human HDAC8 (Q9BY41 whole entry): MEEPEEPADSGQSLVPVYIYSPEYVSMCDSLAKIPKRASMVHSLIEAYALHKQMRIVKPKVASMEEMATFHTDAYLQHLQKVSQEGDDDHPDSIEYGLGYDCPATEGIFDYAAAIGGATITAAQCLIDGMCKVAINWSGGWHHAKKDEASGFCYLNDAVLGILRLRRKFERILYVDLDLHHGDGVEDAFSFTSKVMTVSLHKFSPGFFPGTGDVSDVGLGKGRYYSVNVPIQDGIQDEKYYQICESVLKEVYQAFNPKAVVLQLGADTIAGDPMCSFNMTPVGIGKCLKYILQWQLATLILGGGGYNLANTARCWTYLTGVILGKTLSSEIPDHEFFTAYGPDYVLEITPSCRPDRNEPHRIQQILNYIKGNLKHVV

[2] = test system: Nuclear Extract from HeLa Cells; experiment: HeLa Nuclear Extract HDAC assay; format: biochemical, human; details: 50 μM substrate, 30° C., 2 h, read-out: IC50 (nM) of enzyme activity HeLa

| SMILES | IC50 [1] [nM] | IC50 (Human HDAC1) [nM] | IC50 (Human HDAC2) [nM] | IC50 (Human HDAC3/NcoR2) [nM] | IC50 (Human HDAC6) [nM] | IC50 (Human HDAC8) [nM] | IC50 [2] [nM] | melting point |
| --- | --- | --- | --- | --- | --- | --- | --- | --- |
| COc1ccc(-c2cc(-c3ccccc3)[nH]c2C(=O)NCc2ccc(C(=O)NCCS)cc2)cc1 [Example 23, 3-(4-methoxyphenyl)-5-phenyl-N-(4-{[(2-sulfanylethyl)amino]carbonyl}benzyl)-1H-pyrrole-2-carboxamide] | > 10000 |  |  |  |  |  |  |  |
| O=C(NO)c1ccc(CNC(=O)c2[nH]c(-c3cccs3)cc2-c2ccc(O)cc2)cc1 [Example 13, N-{4-[(hydroxyamino)carbonyl]benzyl}-3-(4-hydroxyphenyl)-5-(2-thienyl)-1H-pyrrole-2-carboxamide] |  | 865 | 1910 | 614 | 6.6 | 559 | 42 | 171 to 172 °C |
| Nc1ccccc1NC(=O)c1ccc(CNC(=O)c2[nH]c(-c3ccoc3)cc2-c2ccc(O)cc2)cc1 [Example 34, N-(4-{[(2-aminophenyl)amino)carbonyl]benzyl}-5-(3-furyl)-3-(4-hydroxyphenyl)-1H-pyrrole-2-carboxamide] |  | 86 | 349 | 770 | 1260 | > 5000 | 1540 |  |
| COc1ccc(-c2cc(-c3ccccc3)[nH]c2C(=O)NCCCCCC(=O)NO)cc1 [Kendine 91, N-[6-(hydroxyamino)-6-oxohexyl]-3-(4-methoxyphenyl)-5-phenyl-1H-pyrrole-2-carboxamide, reference compound] |  | 508 | 1690 | 613 | 34.9 | 146 | 43 |  |
| COc1ccc(-c2cc(-c3ccccc3)[nH]c2C(=O)NCc2ccc(C(=O)NO)cc2)cc1 [Example 38, N-{4-[(hydroxyamino)carbonyl]benzyl}-3-(4-methoxyphenyl)-5-phenyl-1H-pyrrole-2-carboxamide] | 70 |  |  |  |  |  |  |  |
| COc1ccc(-c2cc(-c3ccccc3)[nH]c2C(=O)Nc2ccc(C(=O)NO)o2)cc1 [Example 16, N-{5-[(hydroxyamino)carbonyl]-2-furyl}-3-(4-methoxyphenyl)-5-phenyl-1H-pyrrole-2-carboxamide] | > 10000 |  |  |  |  |  |  | 160 to 162 °C |
| O=C(NO)c1ccc(CNC(=O)c2[nH]c(-c3ccccc3)cc2-c2ccc(F)cc2)cc1 [Example 29, 3-(4-fluorophenyl)-N-{4-[(hydroxyamino)carbonyl]benzyl}-5-phenyl-1H-pyrrole-2-carboxamide] | 71 |  |  |  |  |  | 73 |  |
| Nc1ccccc1NC(=O)c1ccc(CNC(=O)c2[nH]c(-c3ccc(O)cc3)cc2-c2ccccc2)cc1 [Example 35, N-(4-{[(2-Aminophenyl)amino)carbonyl]benzyl}-5-(4-hydroxyphenyl)-3-phenyl-1H-pyrrole-2-carboxamide] |  | 108 | 433 | 806 | > 5000 | > 5000 | 4280 |  |
| O=C(NO)c1ccc(CNC(=O)c2[nH]c(-c3cccs3)cc2-c2ccc(F)cc2)cc1 [Example 31, 3-(4-fluorophenyl)-N-{4-[(hydroxyamino)carbonyl]benzyl}-5-(2-thienyl)-1H-pyrrole-2-carboxamide] | 49 |  |  |  |  |  | 58 |  |
| O=C(NO)c1ccc(CNC(=O)c2[nH]c(-c3cccs3)cc2-c2ccc(F)cc2)cn1 [Example 32, 3-(4-fluorophenyl)-N-{2-[(hydroxyamino)carbonyl]-5-pyridyl-methyl}-5-(2-thienyl)-1H-pyrrole-2-carboxamide] |  |  |  |  |  |  | 390 |  |
| O=C(NO)c1ccc(CNC(=O)c2[nH]c(-c3ccccc3)cc2-c2ccc(Br)cc2)cc1 [Example 40, 3-(4-bromophenyl)-N-{4-[(hydroxyamino)carbonyl]benzyl}-5-phenyl-1H-pyrrole-2-carboxamide] | 99 |  |  |  |  |  |  |  |
| COc1ccc(-c2cc(-c3ccccc3)[nH]c2C(=O)Nc2ccc(C(=O)NO)cc2)cc1 [Example 19, N-{4-[(hydroxyamino)carbonyl]phenyl}-3-(4-methoxyphenyl)-5-phenyl-1H-pyrrole-2-carboxamide] | 101 |  |  |  |  |  |  | 234 to 235 °C |
| O=C(NO)c1ccc(CNC(=O)c2[nH]c(-c3ccccc3)cc2-c2cccc(Br)c2)cc1 [Example 45, 3-(3-bromophenyl)-N-{4-[(hydroxyamino)carbonyl]benzyl}-5-phenyl-1H-pyrrole-2-carboxamide] | 115 |  |  |  |  |  |  |  |
| Cc1ccc(-c2cc(-c3ccc(F)cc3)c(C(=O)NCc3ccc(C(=O)NO)cc3)[nH]2)cc1 [Example 47, 3-(4-fluorophenyl)-N-{4-[(hydroxyamino)carbonyl]benzyl}-5-(4-methylphenyl)-1H-pyrrole-2-carboxamide] | 108 |  |  |  |  |  |  |  |
| O=C(NO)c1ccc(CNC(=O)c2[nH]c(-c3ccccc3)cc2-c2ccc(C(F)(F)F)cc2)cc1 [Example 39, N-{4-[(hydroxyamino)carbonyl]benzyl}-5-phenyl-3-(4-trifluoromethylphenyl)-1H-pyrrole-2-carboxamide] | 170 |  |  |  |  |  |  |  |
| Nc1ccccc1NC(=O)c1ccc(CNC(=O)c2[nH]c(-c3ccsc3)cc2-c2ccc(O)cc2)cc1 [Example 36, N-(4-{[(2-aminophenyl)amino)carbonyl]benzyl}-3-(4-hydroxyphenyl)-5-(3-thienyl)-1H-pyrrole-2-carboxamide] |  | 222 | 752 | 2070 | > 5000 | > 5000 | 4080 |  |
| Nc1ccccc1NC(=O)c1ccc(CNC(=O)c2[nH]c(-c3ccc(O)cc3)cc2-c2ccsc2)cc1 [Example 33, N-(4-{[(2-aminophenyl)amino)carbonyl]benzyl}-5-(4-hydroxyphenyl)-3-(3-thienyl)-1H-pyrrole-2-carboxamide] |  | 103 | 364 | 732 | > 5000 | > 5000 | 3270 |  |
| COc1ccc(-c2cc(-c3ccccc3)[nH]c2C(=O)NCc2ccc(C(=O)NO)cc2)cc1OC [Example 41, N-{4-[(hydroxyamino)carbonyl]benzyl}-3-(3,4-dimethoxyphenyl)-5-phenyl-1H-pyrrole-2-carboxamide] | 119 |  |  |  |  |  |  |  |
| O=C(NO)c1ccc(CNC(=O)c2[nH]c(-c3ccccc3)cc2-c2ccc(F)c(F)c2)cc1 [Example 42, 3-(3,4-difluorophenyl)-N-{4-[(hydroxyamino)carbonyl]benzyl}-5-phenyl-1H-pyrrole-2-carboxamide] | 129 |  |  |  |  |  |  |  |
| O=C(NO)c1ccc(CNC(=O)c2[nH]c(-c3cccs3)cc2-c2ccc(F)cc2)nc1 [Example 11, 6-[({[3-(4-fluorophenyl)-5-(2-thienyl)-1H-pyrrol-2-yl]carbonyl}amino)methyl]-N-hydroxynicotinamide] |  | 744 | 2530 | 754 |  | 181 | 68.3 | 151 to 152 °C |
| O=C(NO)c1ccc(CNC(=O)c2[nH]c(-c3cccnc3)cc2-c2ccc(F)cc2)cc1 [Example 46, 3-(4-fluorophenyl)-N-{4-[(hydroxyamino)carbonyl]benzyl}-5-(3-pyridinyl)-1H-pyrrole-2-carboxamide] | 70 |  |  |  |  |  |  |  |
| COc1ccc(-c2cc(-c3ccccc3)[nH]c2C(=O)NCc2ccc(C(=O)Nc3ccccn3)cc2)cc1 [Example 25, 3-(4-methoxyphenyl)-5-phenyl-N-{4-[(pyridin-2-ylamino)carbonyl]benzyl}-1H-pyrrole-2-carboxamide] |  | > 5000 | > 5000 | > 5000 | > 5000 | > 5000 | > 5000 | 196 °C (dec.) |
| O=C(NO)c1ccc(CNC(=O)c2[nH]c(-c3ccc(F)cc3)cc2-c2ccc(F)cc2)cc1 [Example 30, 3,5-bis-(4-fluorophenyl)-N-{4-[(hydroxyamino)carbonyl]benzyl}-1H-pyrrole-2-carboxamide] | 82 |  |  |  |  |  | 90 |  |
| O=C(NO)c1ccc(CNC(=O)c2[nH]c(-c3ccccc3)cc2-c2ccc(F)cc2)o1 [Example 17, 3-(4-fluorophenyl)-N-({5-[(hydroxyamino)carbonyl]-2-furyl}methyl)-5-phenyl-1H-pyrrole-2-carboxamide] | 9790 |  |  |  |  |  |  | 152 to 153 °C |
| O=C(NO)c1ccc(CNC(=O)c2[nH]c(-c3ccccc3)cc2-c2ccc([N+](=O)[O-])cc2)cc1 [Example 43, N-{4-[(hydroxyamino)carbonyl]benzyl}-3-(4-nitrophenyl)-5-phenyl-1H-pyrrole-2-carboxamide] | 62 |  |  |  |  |  |  |  |
| O=C(NO)c1ccc(CNC(=O)c2[nH]c(-c3ccccc3)cc2-c2ccc(Cl)c(Cl)c2)cc1 [Example 44, 3-(3,4-dichlorophenyl)-N-{4-[(hydroxyamino)carbonyl]benzyl}-5-phenyl-1H-pyrrole-2-carboxamide] | 153 |  |  |  |  |  |  |  |
| COc1ccc(-c2cc(-c3ccccc3)[nH]c2C(=O)Nc2cccc(CC(=O)NO)c2)cc1 [Example 18, N-{3-[2-(hydroxyamino)-2-oxoethyl]phenyl}-3-(4-methoxyphenyl)-5-phenyl-1H-pyrrole-2-carboxamide] | > 10000 |  |  |  |  |  |  | 205 to 206 °C |
